Data: ChEMBL document CHEMBL1201862, “PubChem BioAssay data set” (2004)
The source made the active and inactive calls.

Assays:
[1] = target: Eukaryotic translation initiation factor 4H (Homo sapiens, UniProt Q15056); assay: human eIF4H binding inhibitors, primary screen, translation initiation inhibitor project, biochemical, uHTS, fluorescence polarization (AID 2012)
[2] = target: Polyadenylate-binding protein 1 (Homo sapiens, UniProt P11940); assay: PABP poly(A) RNA binding inhibitors, primary screen, biochemical, fluorescence polarization, uHTS (AID 2014)
Sequence of Polyadenylate-binding protein 1 (P11940 whole entry): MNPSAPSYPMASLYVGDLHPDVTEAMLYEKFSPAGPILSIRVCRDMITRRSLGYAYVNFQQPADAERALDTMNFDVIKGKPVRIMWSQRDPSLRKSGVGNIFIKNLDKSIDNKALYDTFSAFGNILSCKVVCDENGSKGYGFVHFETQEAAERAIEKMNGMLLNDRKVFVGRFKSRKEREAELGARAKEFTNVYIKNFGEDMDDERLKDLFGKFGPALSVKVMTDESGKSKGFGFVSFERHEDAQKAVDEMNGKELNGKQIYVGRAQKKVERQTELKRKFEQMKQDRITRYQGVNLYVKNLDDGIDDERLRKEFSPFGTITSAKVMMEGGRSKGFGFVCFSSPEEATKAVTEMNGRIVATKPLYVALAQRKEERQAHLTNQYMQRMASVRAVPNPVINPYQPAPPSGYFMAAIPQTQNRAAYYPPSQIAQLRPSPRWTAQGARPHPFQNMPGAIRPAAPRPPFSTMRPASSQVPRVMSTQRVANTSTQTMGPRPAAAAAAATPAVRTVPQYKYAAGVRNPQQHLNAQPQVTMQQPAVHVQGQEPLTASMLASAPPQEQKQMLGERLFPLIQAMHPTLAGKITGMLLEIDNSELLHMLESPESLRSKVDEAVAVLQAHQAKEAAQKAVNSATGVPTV

[3] = target: DNA dC->dU-editing enzyme APOBEC-3A (Homo sapiens, UniProt P31941); assay: Dose Response confirmation of small molecule APOBEC3A DNA Deaminase Inhibitors via a fluorescence-based single-stranded DNA deaminase assay. [Related pubchem assays (depositor defined):AID493011, AID493024]; format: functional
Sequence of DNA dC->dU-editing enzyme APOBEC-3A (P31941 whole entry): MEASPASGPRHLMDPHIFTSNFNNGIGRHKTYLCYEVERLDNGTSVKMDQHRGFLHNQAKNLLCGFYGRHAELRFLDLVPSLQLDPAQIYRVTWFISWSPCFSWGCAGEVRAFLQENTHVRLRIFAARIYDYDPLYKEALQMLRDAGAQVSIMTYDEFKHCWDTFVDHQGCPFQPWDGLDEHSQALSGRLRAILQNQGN

[4] = target: T1, DNA dC->dU-editing enzyme APOBEC-3G (Homo sapiens, UniProt Q9HC16); format: functional
T1 sequence (Q9HC16 whole entry): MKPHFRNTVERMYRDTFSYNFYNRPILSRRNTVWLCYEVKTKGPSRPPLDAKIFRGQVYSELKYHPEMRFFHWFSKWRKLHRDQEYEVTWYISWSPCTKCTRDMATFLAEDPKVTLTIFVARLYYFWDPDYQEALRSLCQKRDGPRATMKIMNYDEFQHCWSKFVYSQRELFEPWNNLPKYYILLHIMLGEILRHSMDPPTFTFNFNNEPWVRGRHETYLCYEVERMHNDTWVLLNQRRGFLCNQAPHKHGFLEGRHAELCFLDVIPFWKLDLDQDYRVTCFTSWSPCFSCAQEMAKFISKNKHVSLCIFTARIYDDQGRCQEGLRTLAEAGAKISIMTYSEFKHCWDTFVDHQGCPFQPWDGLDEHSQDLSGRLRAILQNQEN

[5] = growth suppression of PTEN-null colon cells, dose response, cell-based, HCT116 PTEN knockout (AID 1047); format: functional;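 also: HCT116 colon tumor cells with PTEN knocked out; cells exposed to compound for 60 hours before readout; potency for loss of cell viability measured by luminescence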
[6] = growth suppression of beta-catenin-knockout colon cells, dose response, cell-based, HCT116, human colon tumor (AID 1045); format: functional;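 also: HCT116 colon tumor cells with beta catenin knocked out; cells exposed to compound for 60 hours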
X-box-binding protein 1 = target: T2, X-box-binding protein 1 (Homo sapiens, UniProt P17861); format: functional, Cricetulus griseus;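 also: confirmatory dose-response counter-screen serving a CHOP assay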
T2 sequence (P17861 whole entry): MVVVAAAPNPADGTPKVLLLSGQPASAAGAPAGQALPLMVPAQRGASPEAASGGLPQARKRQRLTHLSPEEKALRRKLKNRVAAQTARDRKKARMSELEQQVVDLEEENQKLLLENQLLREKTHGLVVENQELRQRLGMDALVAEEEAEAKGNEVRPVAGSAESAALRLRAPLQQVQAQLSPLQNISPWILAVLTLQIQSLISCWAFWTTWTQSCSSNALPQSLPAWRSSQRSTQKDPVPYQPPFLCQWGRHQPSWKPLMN

[7] = target: T1, DNA dC->dU-editing enzyme APOBEC-3G; assay: Dose Response confirmation of small molecule APOBEC3G DNA Deaminase Inhibitors via a fluorescence-based single-stranded DNA deaminase assay. [Related pubchem assays (depositor defined):AID493012, AID493028]; format: functional
[8] = target: T3, C-C chemokine receptor type 6 (Homo sapiens, UniProt P51684); assay: CCR6 receptor antagonists, dose response, cell-based, luminescent beta-arrestin readout (AID 504728); format: functional
T3 sequence (P51684 whole entry): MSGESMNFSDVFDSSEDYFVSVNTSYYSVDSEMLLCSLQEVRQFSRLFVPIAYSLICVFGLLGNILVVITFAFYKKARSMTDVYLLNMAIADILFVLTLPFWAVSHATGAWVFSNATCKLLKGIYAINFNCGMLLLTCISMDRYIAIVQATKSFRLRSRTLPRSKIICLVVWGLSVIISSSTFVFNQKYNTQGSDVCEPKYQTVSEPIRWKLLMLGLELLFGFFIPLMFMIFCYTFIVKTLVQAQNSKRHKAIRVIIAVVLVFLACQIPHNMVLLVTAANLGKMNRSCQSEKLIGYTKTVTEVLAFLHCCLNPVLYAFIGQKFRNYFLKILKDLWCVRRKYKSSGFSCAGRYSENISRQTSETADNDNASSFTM

Beta-galactosidase = Beta-galactosidase (Escherichia coli, UniProt Q8VNN2); assay: beta-galactosidase enzyme inhibitors and activators, dose response, artefact control for CCR6 antagonist project, biochemical, E. coli enzyme, set 3 (AID 504712); format: functional
Sequence of Beta-galactosidase (Q8VNN2 whole entry): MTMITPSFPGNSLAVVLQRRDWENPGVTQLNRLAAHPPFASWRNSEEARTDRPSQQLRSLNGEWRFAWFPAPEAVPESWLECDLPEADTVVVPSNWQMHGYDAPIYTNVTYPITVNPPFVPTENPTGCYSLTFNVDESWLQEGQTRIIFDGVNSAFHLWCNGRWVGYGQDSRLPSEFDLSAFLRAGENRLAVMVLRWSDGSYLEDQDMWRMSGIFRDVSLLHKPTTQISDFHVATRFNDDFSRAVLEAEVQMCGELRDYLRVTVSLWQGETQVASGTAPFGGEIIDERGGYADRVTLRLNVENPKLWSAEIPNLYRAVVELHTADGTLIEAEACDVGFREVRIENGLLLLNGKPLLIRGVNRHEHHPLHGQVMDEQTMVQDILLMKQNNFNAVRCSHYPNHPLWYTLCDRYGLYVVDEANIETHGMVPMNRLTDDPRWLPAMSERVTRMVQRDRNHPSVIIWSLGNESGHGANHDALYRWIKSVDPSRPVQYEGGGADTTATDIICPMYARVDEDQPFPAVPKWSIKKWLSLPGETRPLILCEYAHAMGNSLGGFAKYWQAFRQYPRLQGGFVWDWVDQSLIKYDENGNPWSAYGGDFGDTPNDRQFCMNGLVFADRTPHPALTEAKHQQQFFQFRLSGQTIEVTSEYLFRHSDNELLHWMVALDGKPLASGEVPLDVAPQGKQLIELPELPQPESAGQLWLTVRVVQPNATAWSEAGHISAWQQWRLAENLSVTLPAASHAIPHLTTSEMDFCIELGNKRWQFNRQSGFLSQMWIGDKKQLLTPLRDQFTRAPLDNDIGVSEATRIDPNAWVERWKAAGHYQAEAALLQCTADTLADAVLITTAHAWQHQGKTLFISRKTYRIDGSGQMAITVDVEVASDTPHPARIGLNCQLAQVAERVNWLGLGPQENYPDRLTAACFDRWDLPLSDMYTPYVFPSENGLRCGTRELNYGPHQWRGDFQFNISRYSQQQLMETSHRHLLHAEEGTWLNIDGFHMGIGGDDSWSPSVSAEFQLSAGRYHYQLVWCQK

Large T antigen = Large T antigen (Simian virus 40, UniProt P03070); format: functional, Betapolyomavirus macacae;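 also: Confirmatory-stage PubChem screen for compounds that inhibit SV40 T antigen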
Sequence of Large T antigen (P03070 whole entry): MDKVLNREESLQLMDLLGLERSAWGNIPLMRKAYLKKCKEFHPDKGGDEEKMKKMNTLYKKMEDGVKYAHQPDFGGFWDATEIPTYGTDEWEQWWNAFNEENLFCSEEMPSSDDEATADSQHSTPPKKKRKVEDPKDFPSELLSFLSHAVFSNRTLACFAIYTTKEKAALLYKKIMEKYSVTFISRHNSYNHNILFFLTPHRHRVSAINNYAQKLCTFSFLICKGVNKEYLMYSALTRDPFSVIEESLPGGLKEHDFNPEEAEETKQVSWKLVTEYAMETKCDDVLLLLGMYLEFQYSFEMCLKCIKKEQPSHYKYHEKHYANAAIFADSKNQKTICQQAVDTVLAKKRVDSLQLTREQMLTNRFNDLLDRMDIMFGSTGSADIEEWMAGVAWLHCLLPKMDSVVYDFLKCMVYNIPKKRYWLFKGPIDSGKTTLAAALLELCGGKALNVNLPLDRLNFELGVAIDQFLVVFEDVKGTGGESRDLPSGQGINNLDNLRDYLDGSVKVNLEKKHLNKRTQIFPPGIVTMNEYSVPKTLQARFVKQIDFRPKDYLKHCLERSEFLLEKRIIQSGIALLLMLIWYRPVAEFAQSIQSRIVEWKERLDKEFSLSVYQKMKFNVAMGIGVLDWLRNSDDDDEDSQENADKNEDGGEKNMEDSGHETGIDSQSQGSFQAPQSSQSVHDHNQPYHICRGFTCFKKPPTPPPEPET

Hexokinase HKDC1 = target: T4, Hexokinase HKDC1 (Homo sapiens, UniProt Q2TB90); assay: HKDC1 hexokinase inhibitors, dose response, biochemical, W721R variant (AID 504729); format: functional
T4 sequence (Q2TB90 whole entry): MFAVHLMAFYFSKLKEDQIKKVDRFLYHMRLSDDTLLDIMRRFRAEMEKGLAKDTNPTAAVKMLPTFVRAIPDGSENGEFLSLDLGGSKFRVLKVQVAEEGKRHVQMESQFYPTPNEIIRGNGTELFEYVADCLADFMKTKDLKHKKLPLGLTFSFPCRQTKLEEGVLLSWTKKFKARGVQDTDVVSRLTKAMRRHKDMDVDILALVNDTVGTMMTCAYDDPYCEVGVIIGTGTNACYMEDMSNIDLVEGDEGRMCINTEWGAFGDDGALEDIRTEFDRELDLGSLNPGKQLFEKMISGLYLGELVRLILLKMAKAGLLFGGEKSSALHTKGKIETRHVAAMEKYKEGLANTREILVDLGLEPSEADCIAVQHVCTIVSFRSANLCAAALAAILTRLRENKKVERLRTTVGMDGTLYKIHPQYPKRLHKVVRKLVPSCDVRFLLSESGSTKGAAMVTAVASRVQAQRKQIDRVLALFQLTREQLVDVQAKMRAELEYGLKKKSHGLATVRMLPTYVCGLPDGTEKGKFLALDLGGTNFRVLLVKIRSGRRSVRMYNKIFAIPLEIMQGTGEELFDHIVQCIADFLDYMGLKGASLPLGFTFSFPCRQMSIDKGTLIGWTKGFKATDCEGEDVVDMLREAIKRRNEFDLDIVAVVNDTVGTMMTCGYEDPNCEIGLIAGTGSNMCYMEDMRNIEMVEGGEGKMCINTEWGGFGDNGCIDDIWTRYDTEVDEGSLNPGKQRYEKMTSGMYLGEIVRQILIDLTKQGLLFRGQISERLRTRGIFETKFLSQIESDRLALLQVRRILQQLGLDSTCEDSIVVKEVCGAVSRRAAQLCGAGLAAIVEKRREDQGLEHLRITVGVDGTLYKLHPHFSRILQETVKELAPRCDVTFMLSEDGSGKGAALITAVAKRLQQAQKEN

cells [9] = format: functional, cell-based
cells [10] = format: functional, cell-based; remark: listed apart in the source
Nonstructural protein 1 = Nonstructural protein 1 (Influenza A virus, UniProt Q194T2); format: functional, Influenza A virus (A/California/07/2009(H1N1))
Sequence of Nonstructural protein 1 (Q194T2 whole entry): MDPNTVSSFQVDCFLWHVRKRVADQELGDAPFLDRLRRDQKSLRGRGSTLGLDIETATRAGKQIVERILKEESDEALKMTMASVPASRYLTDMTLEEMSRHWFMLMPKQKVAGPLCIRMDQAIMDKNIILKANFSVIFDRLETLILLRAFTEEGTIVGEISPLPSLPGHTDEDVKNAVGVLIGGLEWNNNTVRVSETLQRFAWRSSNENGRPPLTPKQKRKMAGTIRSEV

[11] = target: Heat shock protein HSP 90-alpha (Homo sapiens, UniProt P07900); format: functional, organism-based
INS1 = assay: beta cell apoptosis inhibitors, cytokine rescue, dose response, luminescence, retest (AID 449756); format: functional, cell-based; conditions: Rattus norvegicus;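 also: cell death triggered by IL-1 beta plus TNF-alpha plus IFN-gamma mixture; protective hits raise ATP signal compared with cytokine alone wells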
[12] = target: Disintegrin and metalloproteinase domain-containing protein 17 (Homo sapiens, UniProt P78536); assay: ADAM17 protease inhibitors, dose response, counter-screen for ADAM10 exosite inhibitor project, biochemical, quenched FRET substrate (AID 743253)
Sequence of Disintegrin and metalloproteinase domain-containing protein 17 (P78536 whole entry, the tested form may be a part): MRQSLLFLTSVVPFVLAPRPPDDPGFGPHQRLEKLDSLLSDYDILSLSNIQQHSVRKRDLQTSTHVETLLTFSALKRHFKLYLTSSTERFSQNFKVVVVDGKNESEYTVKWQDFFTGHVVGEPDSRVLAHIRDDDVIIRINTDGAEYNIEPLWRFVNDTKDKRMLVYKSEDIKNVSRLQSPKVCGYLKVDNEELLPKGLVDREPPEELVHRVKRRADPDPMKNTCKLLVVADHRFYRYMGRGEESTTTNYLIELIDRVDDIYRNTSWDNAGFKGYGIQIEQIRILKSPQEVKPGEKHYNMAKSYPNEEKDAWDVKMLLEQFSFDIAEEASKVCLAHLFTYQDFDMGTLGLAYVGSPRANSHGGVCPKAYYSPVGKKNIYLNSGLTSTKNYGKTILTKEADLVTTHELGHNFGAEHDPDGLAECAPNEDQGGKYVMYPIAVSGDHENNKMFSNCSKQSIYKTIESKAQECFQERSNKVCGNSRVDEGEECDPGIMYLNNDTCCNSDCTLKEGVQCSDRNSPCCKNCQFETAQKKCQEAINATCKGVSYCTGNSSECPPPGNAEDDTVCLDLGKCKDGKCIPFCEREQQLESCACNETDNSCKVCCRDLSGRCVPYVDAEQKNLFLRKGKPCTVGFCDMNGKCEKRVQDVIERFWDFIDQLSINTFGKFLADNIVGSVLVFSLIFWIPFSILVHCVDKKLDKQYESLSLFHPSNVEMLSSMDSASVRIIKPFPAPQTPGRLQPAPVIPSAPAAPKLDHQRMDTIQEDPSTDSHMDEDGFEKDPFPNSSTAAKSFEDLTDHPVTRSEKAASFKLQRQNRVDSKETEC

## C[n+]1ccc(-c2ccncc2)cc1
[1]
  IC50: 82.2 µM (active)
[2]
  IC50: 7.33 µM (active)
[3]
  IC50: 2.02 µM (active)
[4]
  IC50: 2.53 µM (active)

## Nc1c(N(C(=O)Nc2ccc(Cl)c(Cl)c2)C2CCCC2)c(=O)[nH]c(=O)n1Cc1ccccc1
[5]
  EC50: 15.5 µM (active)
[6]
  EC50: 15.3 µM (active)
X-box-binding protein 1
  Absolute IC50 (XBP1): 10 µM

## COC(=O)/C(=C(/F)Sc1cc(C)c(O)c(C)c1)C(F)(F)F
X-box-binding protein 1
  Absolute IC50 (XBP1): 10 µM

## CCOC(=O)c1sc(NC(=O)C(C)C)c(C#N)c1C
[7]
  IC50: 39.3 µM (active)

## CN(CC(=O)Nc1ccc(OC(F)F)cc1)S(=O)(=O)/C=C/c1ccccc1
[8]
  IC50: > 66.6 µM (inactive)
Beta-galactosidase
  IC50: > 66.6 µM (inactive)

## CC[C@H](C)/C=C(C)/C=C/C1=CC2=C(Cl)C(=O)[C@@](C)(OC(C)=O)C(=O)C2=CO1
Large T antigen
  IC50: 30.4 µM (active)
Hexokinase HKDC1
  IC50: 16.8 µM (active)

## O=[N+]([O-])c1ccc(O)c(/C=N/Nc2ccccn2)c1
Cells [9]
  EC50: > 350 µM (not active)
Cells [10]
  EC50: > 350 µM (not active)
[8]
  IC50: > 66.6 µM (inactive)
Beta-galactosidase
  IC50: > 66.6 µM (inactive)
Nonstructural protein 1
  IC50: 7.05 µM (active)
[11]
  AC50: 3.97 µM (active)
INS1
  AC50: 0.342 µM (active)
[12]
  IC50: 9.75 µM (active)
